# Laboratory results: patent publication US12629419B2, “Prevention or mitigation of T-cell engaging agent-related adverse effects” (Hoffmann-La Roche Inc., priority 2020, dated 2026)
# Entries after “also recorded” stand apart in the source; their conditions may differ.
# Tests used:
# [1] = system: CD20-TCB-induced cytokine release; experiment: CD20-TCB-induced cytokine release (Luminex); type: cell-based; conditions: 24 h; for cytokine release induced by CD20-TCB (IFN-γ, IL-2, TNF-α, GM-CSF and IL-6): concentrations above 12.5 nM; for CD20-TCB-induced cytokine release: escalating CD20-TCB / 1 nM CD20-TCB, fixed compound concentrations
# Method: A similar experiment was conducted with another TCB.
# A similar experiment was conducted with CD20-TCB.
# A similar experiment was conducted with CD20-TCB. WSU DLCL2 cells were co-cultured together with PBMCs in the presence of 1 nM CD20-TCB, and escalating everolimus doses ranging from 0 nM to 1000 nM (FIG. 13).
# A similar experiment was conducted with CD20-TCB. WSU DLCL2 cells were co-cultured together with PBMCs in the presence of 1 nM CD20-TCB, and escalating ruxolitinib doses ranging from 0 nM to 1000 nM (FIG. 13).
# A similar experiment was conducted with another TCB. […] The killing of B cells was measured as a readout for the impact of the various compounds on TCB efficacy at 24 h (FIGS. 27 and 28). […] Lastly, the levels of cytokines (TNF-α, IFN-γ, IL-2, IL-6, IL-4, IL-10, GM-CSF and IL-1β) were analyzed by Luminex at assay endpoint to assess the impact of the different treatments on TCB-induced cytokine release (FIGS. 32 and 33).
# At 24 hours, tumor cell killing was measured by flow cytometry by exclusion of dead CTV cells. The supernatants were collected and cytokines were measured by Luminex.
# WSU DLCL2 tumor cells = experiment: CD20-TCB killing assay, inhibitors added after 18 hours of activation: tumor cell killing; type: cell-based; conditions: 100 nM added at 18 h
# Method: (§1) FIG. 34. In vitro killing assay set-up. Cell Trace™ Violet (CTV) labelled WSU DLCL2 tumor cells were co-cultured together with PBMCs [E:T=200′000:20′000] and stimulated with CD20-TCB for 18 h.
# (§2) In this assay, CTV labelled WSU DLCL2 tumors cells were co-cultured with PBMCs in the presence of escalating doses of CD20-TCB for 18 hours.
# [2] = system: CD20-TCB-induced cytokine release; experiment: CD20-TCB killing assay, inhibitors added after 18 hours: cytokine release from pre-activated effector cells; type: cell-based; conditions: 100 nM added at 18 h
# Method: as §1, §2
# [3] = system: A375 NucLight Red (NLR) target-cells; experiment: killing assay with PBMCs, A375 NLR target cells and MAGEA4-TCB (Incucyte); type: cell-based; conditions: 8 nM MAGEA4-TCB; escalating inhibitor concentrations
# SUDLH-8 tumor cells = experiment: killing assay with PBMCs, CTV labelled SUDLH-8 tumor cells and CD19-TCB; type: cell-based; conditions: 24 hrs; 100 nM kinase inhibitors or dexamethasone, 5 μg/mL antibodies
# Method: FIG. 64. In vitro killing assay set-up. PBMCs were co-cultured with CellTrace™ Violet (CTV) labelled SUDLH-8 tumor cells (E:T=10:1) in the presence of escalating concentrations of CD19-TCB in media supplemented with the different kinase inhibitors (100 nM) for 24 hrs.
# FIG. 69. In vitro killing assay set-up. PBMCs were co-cultured with CTV labelled SUDLH-8 cells (E:T=10:1) in the presence of escalating concentrations of CD19-TCB in media supplemented with the different JAK inhibitors (100 nM) for 24 hrs.
# FIG. 73. In vitro killing assay set-up.
# (§3) PBMCs were co-cultured together with CellTrace™ Violet (CTV) labelled SUDLH-8 tumor cells and escalating concentrations of CD19-TCB in the presence of the different kinase inhibitors, including also the Src inhibitor dasatinib (FIG. 64). At assay endpoint (24 hrs), the killing of CTV labelled SUDLH-8 cells was measured by flow cytometry by exclusion of the dead SUDLH-8 cells with a Live/Dead stain. […] Lastly, the levels of cytokines were measured in the supernatants of the assay to evaluate the effect of mTOR, JAK and Src inhibitors on CD19-TCB-induced cytokine release.
# (§4) At assay endpoint (24 hrs), the killing of CTV labelled SUDLH-8 cells was measured by flow cytometry by exclusion of the dead SUDLH-8 cells with a Live/Dead stain. […] Lastly, the levels of cytokines were measured in the supernatants of the assay to assess the effect of the JAK inhibitors on CD19-TCB-induced cytokine release.
# as §4, with “stain to evaluate the effect of the different mitigation approaches on CD19-TCB-dependent killing.” for “stain.”, “address” for “assess”
# [4] = system: CD19-TCB-induced cytokine release; experiment: CD19-TCB-induced cytokine release in SUDLH-8 assay (Luminex); type: cell-based; conditions: 24 hrs
# Method: as §3, §4
# as §4, with “stain to evaluate the effect of the different mitigation approaches on CD19-TCB-dependent killing.” for “stain.”, “address” for “assess”
# CD19+ B cells = experiment: CD20-TCB-induced B cell depletion in non-tumor bearing humanized NSG mice; type: in vivo; conditions: 48 and 72 hours; 0.15 mg/kg CD20-TCB; p.o. 2, 5, 10 mg/kg sirolimus, 10 mg/kg everolimus, 10 mg/kg temsirolimus, ruxolitinib
# Method: FIG. 95. In vivo experiment timelines and dosing schedule.
# FIG. 96. […] The proportion of CD19+ B cells among human CD45+(huCD45) cells was measured by flow cytometry in the blood collected 48 hrs and 72 hrs post-treatment with CD20-TCB. Mean of n=4 mice or n=3 mice (everolimus group)+/−SEM. The statistical comparison to the vehicle group is summarized table (C) where the p values were calculated by Kruskal-Wallis test.
# Different doses of mTOR, JAK and Src kinase inhibitors were tested to determine the optimal dose that reduces CD20-TCB-induced cytokine release while minimally interfering with B cell depletion. […] The doses of 30 and 60 mg/kg were tested for ruxolitinib and the doses of 10 and 50 mg/kg were tested for dasatinib. To reproduce the clinical route of administration, the different kinase inhibitors were given orally (p.o.) once or twice per day as depicted in FIG. 95. Mice were bled 4 hours and 24 hours after the treatment with CD20-TCB (FIG. 95) to collect serum for cytokine level measurements by Luminex. Additionally, blood was collected 48 hours and 72 hours (termination) post treatment with CD20-TCB to measure the percentage of CD19+ B cells among human CD45+ cells by flow cytometry (FIG. 95).
# [5] = 1 nM CD20-TCB, three donors, between 18 hours and 44 hours
# [6] = measured at 44 hours, escalating CD20-TCB
# [7] = 100 nM, compared with dexamethasone
Compound,"cytokine release induced by CD20-TCB (IFN-γ, IL-2, TNF-α, GM-CSF and IL-6) ([1]; 1 nM CD20-TCB)",CD20-TCB-induced cytokine release [1],CTV labelled WSU DLCL2 tumor cell killing (WSU DLCL2 tumor cells; [5]),CTV labelled WSU DLCL2 tumor cell killing (WSU DLCL2 tumor cells; [6]),"further release of IFN-γ, IL-2, IL-6 ([2]; 1 nM CD20-TCB, three donors)","IL-2, IFN-γ, IL-6 and GM-CSF release ([2]; between 18 hours and 44 hours)",release of TNF-α and IL-1β ([2]; between 18 hours and 44 hours),MAGEA4-TCB induced tumor cell killing [3],CD19-TCB-dependent killing of CTV labelled SUDLH-8 cells (SUDLH-8 tumor cells),CD19-TCB-induced cytokine release ([4]; 100 nM inhibitor),"CD19-TCB-induced IFN-γ and TNF-α [4, 7]",B cell depletion induced by CD20-TCB (percentage of CD19+ B cells among human CD45+ cells in peripheral blood) (CD19+ B cells),"release of TNF-α, IL-2 and GM-CSF ([1]; 1 nM CD20-TCB)","IL-6 and IFN-γ release induced by CD20-TCB ([1]; 1 nM CD20-TCB, concentrations above 25 nM)","IL-2 release ([2]; 1 nM CD20-TCB, three donors)","further release of IFN-γ and IL-6 ([2]; 1 nM CD20-TCB, three donors)","further production of IFN-γ, IL-6 ([2]; between 18 hours and 44 hours)",further production of IL-2 ([2]; between 18 hours and 44 hours),"CD19-TCB-induced IFN-γ, TNF-α, IL-6 and GM-CSF release ([4]; 100 nM inhibitor)","CD19-TCB-induced IL-2 and GM-CSF [4, 7]"
"CO[C@H]1C[C@@H]2CC[C@@H](C)[C@@](O)(O2)C(=O)C(=O)N2CCCC[C@H]2C(=O)O[C@H]([C@H](C)C[C@@H]2CC[C@@H](OCCO)[C@H](OC)C2)CC(=O)[C@H](C)/C=C(\C)[C@@H](O)[C@@H](OC)C(=O)[C@H](C)C[C@H](C)/C=C/C=C/C=C/1C [everolimus, Everolimus]",strongly reduced,comparable effect to dexamethasone and dasatinib,did not impact further,did not impact,prevented further release,stopped,to a lower extent,did not prevent,did not prevent,comparable to the effect of the corticosteroid dexamethasone,comparable to the effect of dexamethasone,did not interfere; also recorded: minimally interfered,,,,,,,,
"N#CC[C@H](C1CCCC1)n1cc(-c2ncnc3[nH]ccc23)cn1 [ruxolitinib, Ruxolitinib]",,comparable effect to dexamethasone and dasatinib,did not impact further,did not impact,,,,did not prevent,did not prevent,comparable to the effect of the corticosteroid dexamethasone,comparable to the effect of dexamethasone,slightly interfered; also recorded: minimally interfered,did not have a strong effect,strongly reduced,did not prevent,prevented further release,prevented further production,did not prevent further production,prevented,weaker
"CO[C@H]1C[C@@H]2CC[C@@H](C)[C@@](O)(O2)C(=O)C(=O)N2CCCC[C@H]2C(=O)O[C@H]([C@H](C)C[C@@H]2CC[C@@H](O)[C@H](OC)C2)CC(=O)[C@H](C)/C=C(\C)[C@@H](O)[C@@H](OC)C(=O)[C@H](C)C[C@H](C)/C=C/C=C/C=C/1C [sirolimus, Sirolimus]",strongly reduced,comparable effect to dexamethasone and dasatinib,did not impact further,did not impact,prevented further release,stopped,to a lower extent,did not prevent,did not prevent,comparable to the effect of the corticosteroid dexamethasone,comparable to the effect of dexamethasone,did not interfere; also recorded: minimally interfered,,,,,,,,
"CO[C@H]1C[C@@H]2CC[C@@H](C)[C@@](O)(O2)C(=O)C(=O)N2CCCC[C@H]2C(=O)O[C@H]([C@H](C)C[C@@H]2CC[C@@H](OC(=O)C(C)(CO)CO)[C@H](OC)C2)CC(=O)[C@H](C)/C=C(\C)[C@@H](O)[C@@H](OC)C(=O)[C@H](C)C[C@H](C)/C=C/C=C/C=C/1C [temsirolimus, Temsirolimus]",,comparable effect to dexamethasone and dasatinib,did not impact further,did not impact,prevented further release,,to a lower extent,did not prevent,did not prevent,comparable to the effect of the corticosteroid dexamethasone,comparable to the effect of dexamethasone,did not interfere; also recorded: minimally interfered,,,,,,,,
